One compound from PubChem BioAssay AID558 (University of Pittsburgh Molecular Library Screening Center, 2006) can be followed below.

This assay addresses Dual specificity protein phosphatase 1 (Homo sapiens) (UniProt P28562). As to the kind of experiment: MKP-1 phosphatase inhibition under DTT, dose response, biochemical, DTT added, probe assessment (AID 558). To be noted: recombinant MKP-1 phosphatase, fluorescence, with DTT.

Calls of active or inactive are those of the source. The rule behind the calls is not given here. A value given as a limit tells only on which side of the number the result lay.

Sequence of Dual specificity protein phosphatase 1 (Homo sapiens) (P28562 whole entry, looked up): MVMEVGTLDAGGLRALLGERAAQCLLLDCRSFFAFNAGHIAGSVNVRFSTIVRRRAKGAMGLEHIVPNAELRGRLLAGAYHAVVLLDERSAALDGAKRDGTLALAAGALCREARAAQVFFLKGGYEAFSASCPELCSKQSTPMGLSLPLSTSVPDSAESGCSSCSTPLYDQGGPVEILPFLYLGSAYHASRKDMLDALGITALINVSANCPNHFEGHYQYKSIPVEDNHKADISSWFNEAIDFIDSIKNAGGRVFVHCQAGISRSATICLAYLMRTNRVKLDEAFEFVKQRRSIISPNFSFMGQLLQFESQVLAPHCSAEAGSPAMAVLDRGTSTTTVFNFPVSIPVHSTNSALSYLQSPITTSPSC

For `O=C1C(C2=C(O)c3ccccc3C2=O)=Nc2ccccc21`, the IC50 (as a rule, the concentration that gives 50% inhibition) is > 50 µM (inactive).
